The target in the test is T1, recombinant human ALX receptor (Homo sapiens, UniProt P25090).
T1 construct: expressed in transfected cells; host or cells: HEK293 (HEK293-hALXR-Gα16)
T1 sequence (P25090 1-351): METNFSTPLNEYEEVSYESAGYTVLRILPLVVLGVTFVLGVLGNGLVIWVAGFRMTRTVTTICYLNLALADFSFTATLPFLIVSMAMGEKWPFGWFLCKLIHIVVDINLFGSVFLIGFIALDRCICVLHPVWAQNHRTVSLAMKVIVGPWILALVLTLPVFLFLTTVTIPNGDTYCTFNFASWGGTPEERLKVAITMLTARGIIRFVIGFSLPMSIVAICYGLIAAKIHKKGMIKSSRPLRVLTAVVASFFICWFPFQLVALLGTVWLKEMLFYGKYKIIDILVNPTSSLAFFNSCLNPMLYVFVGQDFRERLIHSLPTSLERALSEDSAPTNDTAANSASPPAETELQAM
Briefly: Intracellular calcium measurements (FLIPR), ALX receptor agonistic activity. Format: cell-based. The note with it: HEK293-hALXR-Gα16 cells, Fluo-4 calcium signal, normalized to WKYMVm 10 nM. Summed up: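 HEK293 cells co-expressing human ALX receptor and Gα16 were loaded with 1 μM Fluo-4 AM for 60 min at 37° C., then exposed to serially diluted compounds on FLIPR Tetra. Peak fluorescence above baseline (ex 488/em 540 nm) was normalized to 10 nM WKYMVm as high control.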
Background: Calcium flux is commonly read through the fluorescence of an indicator in the cells.

SMILES strings stand for the structures. Counter-ions that a name gives are not always drawn.

As a reminder, the EC50 is the concentration needed to bring the measured effect to its halfway point.

In the case of `COc1ccc(C[C@@H](NC(=O)N[C@H]2CCC[C@H]2O)c2nc3ccccc3[nH]2)cc1` [Example 114, 1-((R)-1-(1H-Benzo[d]imidazol-2-yl)-2-(4-methoxyphenyl)ethyl)-3-((1S,2R)-2-hydroxycyclopentyl)urea], the EC50 was determined as 190 nM.

As to `COc1ccc(CC(NC(=O)Nc2ccnn2-c2ccc(OC)cc2)c2nc3ccccc3[nH]2)cc1` (stereo not drawn) [Example 406, 1-(1-(1H-benzo[d]imidazol-2-yl)-2-(4-methoxyphenyl)ethyl)-3-(1-(4-methoxyphenyl)-1H-pyrazol-5-yl)urea], the EC50 turned out to be 182 nM.

For the molecule `COC[C@@H](NC(=O)N[C@H](Cc1ccc(OC)cc1)c1nc2ccccc2[nH]1)c1ccccc1` [Example 200, 1-((R)-1-(1H-Benzo[d]imidazol-2-yl)-2-(4-methoxyphenyl)ethyl)-3-((S)-2-methoxy-1-phenylethyl)urea], the EC50 came to 53 nM.

In the case of `COc1ccc(C[C@@H](NC(=O)NC23CCC(O)(CC2)CC3)c2nc3ccc(Cl)cc3[nH]2)cc1` [Example 192, (R)-1-(1-(6-Chloro-1H-benzo[d]imidazol-2-yl)-2-(4-methoxyphenyl)ethyl)-3-(4-hydroxybicyclo[2.2.2]octan-1-yl)urea], the concentration for a half-maximal effect (EC50) turned out to be 0.1 nM. The value for `COc1ccc(CC(NC(=O)Nc2ccnn2-c2ccccc2)c2nc3ccccc3[nH]2)cc1` (stereo not drawn) [Example 412, 1-(1-(1H-benzo[d]imidazol-2-yl)-2-(4-methoxyphenyl)ethyl)-3-(1-phenyl-1H-pyrazol-5-yl)urea] was 157 nM; that for `COc1ccc(C[C@@H](NC(=O)N[C@H]2CNC[C@@H]2F)c2nc3ccccc3[nH]2)cc1` (relative stereo) [Example 184, 1-((R)-1-(1H-Benzo[d]imidazol-2-yl)-2-(4-methoxyphenyl)ethyl)-3-((3S*,4S*)-4-fluoropyrrolidin-3-yl)urea] was 829 nM. On to `COc1ccc(C[C@@H](NC(=O)N[C@@H]2CCC[C@@H]2O)c2nc3ccccc3[nH]2)cc1` [Example 21, 1-((R)-1-(1H-Benzo[d]imidazol-2-yl)-2-(4-methoxyphenyl)ethyl)-3-((1R,2S)-2-hydroxycyclopentyl)urea], for which the EC50 was 29 nM. The value for `COc1ccc(CC(NC(=O)NCc2cccc(OC)c2)c2nc3ccccc3[nH]2)cc1` (stereo not drawn) [Example 39, 1-(1-(1H-Benzo[d]imidazol-2-yl)-2-(4-methoxyphenyl)ethyl)-3-(3-methoxybenzyl)urea] was 516 nM; that for `COc1ccc(CC(NC(=O)Nc2ccnn2-c2ccc(F)cc2)c2nc3ccccc3[nH]2)cc1` (stereo not drawn) [Example 410, 1-(1-(1H-benzo[d]imidazol-2-yl)-2-(4-methoxyphenyl)ethyl)-3-(1-(4-fluorophenyl)-1H-pyrazol-5-yl)urea] was 45 nM. `COc1ccc(C[C@@H](NC(=O)N[C@H]2CC[C@H](O)CC2)c2nc3cc([N+](=O)[O-])ccc3[nH]2)cc1` [Example 148, 1-(trans-4-Hydroxycyclohexyl)-3-((R)-2-(4-methoxyphenyl)-1-(5-nitro-1H-benzo[d]imidazol-2-yl)ethyl)urea]: the EC50 came to 18 nM. To `COc1ccc(C[C@@H](NC(=O)NC2CCCCC2)c2nc3ccccc3[nH]2)cc1` [Example 17, (R)-1-(1-(1H-Benzo[d]imidazol-2-yl)-2-(4-methoxyphenyl)ethyl)-3-cyclohexylurea hydrochloride] belongs 47 nM. In the case of `COc1ccc(C[C@@H](NC(=O)NCc2cccc(C(F)(F)F)c2Cl)c2nc3ccccc3[nH]2)cc1` [Example 273, (R)-1-(1-(1H-Benzo[d]imidazol-2-yl)-2-(4-methoxyphenyl)ethyl)-3-(2-chloro-3-(trifluoromethyl)benzyl)urea], the EC50 stood at 234 nM. For `CCOc1ccccc1CNC(=O)N[C@H](Cc1ccc(OC)cc1)c1nc2ccccc2[nH]1` [Example 60, (R)-1-(1-(1H-Benzo[d]imidazol-2-yl)-2-(4-methoxyphenyl)ethyl)-3-(2-ethoxybenzyl)urea hydrochloride], the EC50 worked out at 161 nM.

`COc1ccc(C[C@@H](NC(=O)NC2CCN(C(C)C)CC2)c2nc3ccccc3[nH]2)cc1` [Example 101, (R)-1-(1-(1H-Benzo[d]imidazol-2-yl)-2-(4-methoxyphenyl)ethyl)-3-(1-isopropylpiperidin-4-yl)urea]: the EC50 was 113 nM. For `COc1ccc(C[C@@H](NC(=O)NCCc2ccc(F)cc2)c2nc3ccccc3[nH]2)cc1` [Example 55, (R)-1-(1-(1H-Benzo[d]imidazol-2-yl)-2-(4-methoxyphenyl)ethyl)-3-(4-fluorophenethyl)urea hydrochloride], the EC50 came to 137 nM. As to `COc1ccc(C[C@@H](NC(=O)NC[C@H]2CCCC[C@@H]2O)c2nc3ccccc3[nH]2)cc1` (relative stereo) [Example 103, 1-((R)-1-(1H-Benzo[d]imidazol-2-yl)-2-(4-methoxyphenyl)ethyl)-3-(((1R*,2S*)-2-hydroxycyclohexyl)methyl)urea], the EC50 turned out to be 309 nM. To `COc1ccc(CC(NC(=O)NC2CCN(C)CC2)c2nc3ccccc3[nH]2)cc1` (stereo not drawn) [Example 49, 1-(1-(1H-Benzo[d]imidazol-2-yl)-2-(4-methoxyphenyl)ethyl)-3-(1-methylpiperidin-4-yl)urea] belongs 85 nM; to `COc1ccc(CC(NC(=O)N[C@H]2CC[C@H](O)CC2)c2nc3ccccc3[nH]2)c(C)c1` (relative stereo) [Example 396, 1-(1-(1H-Benzo[d]imidazol-2-yl)-2-(4-methoxy-2-methylphenyl)ethyl)-3-(trans-4-hydroxycyclohexyl)urea], 26 nM. To `CCOC(=O)[C@@H]1CCCC[C@@H]1NC(=O)N[C@H](Cc1ccc(OC)cc1)c1nc2ccccc2[nH]1` (relative stereo) [Example 28, (1R*,2S*)-Ethyl 2-(3-((R)-1-(1H-benzo[d]imidazol-2-yl)-2-(4-methoxyphenyl)ethyl)ureido)cyclohexanecarboxylate] belongs 9.2 nM. To `COc1ccc(CC(NC(=O)N[C@H]2CC[C@H](O)CC2)c2nc3cc(Br)c(Br)cc3[nH]2)cc1` (single isomer, unassigned; ent-1) [Example 425, 1-(1-(5,6-dibromo-1H-benzo[d]imidazol-2-yl)-2-(4-methoxyphenyl)ethyl)-3-(trans-4-hydroxycyclohexyl)urea (ent-1)] belongs 119 nM. Consider `COc1ccc(C[C@@H](NC(=O)N2CC3CC2CN3)c2nc3ccccc3[nH]2)cc1` (stereo partly drawn) [Example 129, N—((R)-1-(1H-Benzo[d]imidazol-2-yl)-2-(4-methoxyphenyl)ethyl)-2,5-diazabicyclo[2.2.1]heptane-2-carboxamide], for which the EC50 was found to be 279 nM. To `COc1ccc(C[C@@H](NC(=O)Nc2cc(C3CC3)nn2C)c2nc3ccccc3[nH]2)cc1` [Example 314, (R)-1-(1-(1H-Benzo[d]imidazol-2-yl)-2-(4-methoxyphenyl)ethyl)-3-(3-cyclopropyl-1-methyl-1H-pyrazol-5-yl)urea] belongs 14 nM.

Regarding `COc1ccc(C[C@@H](NC(=O)N[C@@H]2CCNC2)c2nc3ccccc3[nH]2)cc1` [Example 125, 1-((R)-1-(1H-Benzo[d]imidazol-2-yl)-2-(4-methoxyphenyl)ethyl)-3-((R)-pyrrolidin-3-yl)urea], the EC50 is 82 nM. To `COC(=O)c1ccc([C@H](C)NC(=O)N[C@H](Cc2ccc(OC)cc2)c2nc3ccccc3[nH]2)cc1` [Example 337, Methyl 4-((S)-1-(3-((R)-1-(1H-benzo[d]imidazol-2-yl)-2-(4-methoxyphenyl)ethyl)ureido)ethyl)benzoate] belongs 380 nM; to `COc1ccc(CC(NC(=O)Nc2cc(-c3ccc(OC)cc3)n[nH]2)c2nc3ccccc3[nH]2)cc1` (stereo not drawn) [Example 404, 1-(1-(1H-benzo[d]imidazol-2-yl)-2-(4-methoxyphenyl)ethyl)-3-(3-(4-methoxyphenyl)-1H-pyrazol-5-yl)urea], 158 nM. The value for `COc1ccc(CC(NC(=O)Nc2cc(C)on2)c2nc3ccccc3[nH]2)cc1` (stereo not drawn) [Example 401, 1-(1-(1H-Benzo[d]imidazol-2-yl)-2-(4-methoxyphenyl)ethyl)-3-(5-methylisoxazol-3-yl)urea] was 372 nM; that for `COc1ccc(C[C@@H](NC(=O)NC2CCN(Cc3ccccc3)C2)c2nc3ccccc3[nH]2)cc1` (stereo partly drawn) [Example 102, 1-((R)-1-(1H-Benzo[d]imidazol-2-yl)-2-(4-methoxyphenyl)ethyl)-3-(1-benzylpyrrolidin-3-yl)urea] was 376 nM. To `COc1ccc(CC(NC(=O)N[C@@H](C)c2cccc(Cl)c2)c2nc3ccccc3[nH]2)cc1` (stereo partly drawn) [Example 360, 1-(1-(1H-Benzo[d]imidazol-2-yl)-2-(4-methoxyphenyl)ethyl)-3-((S)-1-(3-chlorophenyl)ethyl)urea] belongs 561 nM; to `COc1ccc(C[C@@H](NC(=O)NCc2ccn(CC(F)(F)F)n2)c2nc3ccccc3[nH]2)cc1` [Example 293, (R)-1-(1-(1H-Benzo[d]imidazol-2-yl)-2-(4-methoxyphenyl)ethyl)-3-((1-(2,2,2-trifluoroethyl)-1H-pyrazol-3-yl)methyl)urea], 168 nM; to `COc1ccc(C[C@@H](NC(=O)NC2(c3ccc(Br)cc3)CC2)c2nc3ccccc3[nH]2)cc1` [Example 340, (R)-1-(1-(1H-Benzo[d]imidazol-2-yl)-2-(4-methoxyphenyl)ethyl)-3-(1-(4-bromophenyl)cyclopropyl)urea], 268 nM.

(Values after patent US9663473B2 (Actelion Pharmaceuticals Ltd, priority 2013, dated 2017).)
